The results in this text go back to patent US10669287B2, “Curcumin-boron complex and pharmaceutical containing same” (JAPAN SCIENCE AND TECHNOLOGY AGENCY, priority 2016, dated 2020).

Structures are written as SMILES. Entries after “also recorded” stand apart in the source; their conditions may differ. Like-named read-outs stand apart in the source and are kept apart here.

A short description of data set [1]: Stability of catalyst in neutral phosphate buffer without or under light irradiation (HPLC), Test Example 5. The data set is classed as physicochemical. Conditions: under light irradiation (660 nm). The method, then: A neutral phosphate buffer containing a catalyst was incubated without light irradiation or under light irradiation (660 nm), and thereafter ethanol containing benzyl alcohol (as an internal standard) was added thereto, and analysis was performed by using HPLC.

The test system of data set [2] is PC 12 cells. Briefly: Cytotoxicity under light irradiation, WST-8 cell viability, Test Example 2. In kind it is cell-based, rat. Conditions: LED 660 nm, 10 mW, 5 minutes, then 48 hours.
Experimental: A culture medium for rat adrenal medulla-derived pheochromocytoma PC 12 cells (purchased from RIKEN, Japan) seeded on a poly-D-lysine-coated 96-well plate was replaced with 75 μL of a Dulbecco's modified Eagle's medium containing 0.1% horse serum, and the culture was incubated in a 5% CO2 atmosphere at 37° C. for 1 day, and 25 μL of a phosphate buffer saline (pH 7.4) containing a inventive compound was then added thereto. Thereafter, the mixed solution was incubated under LED irradiation (wavelength: 660 nm, 10 mW) (without light irradiation for dark) at 37° C. for 5 minutes. Further, the cell culture plate containing the reaction solution was incubated in a 5% CO2 atmosphere at 37° C. for 48 hours. Finally, the Cell Count Reagent SF (10 μL: purchased from NACALAI TESQUE, INC.) containing WST-8 was added, and the culture was incubated in a 5% CO2 atmosphere at 37° C. for 3 hours, and thereafter the cell viability was determined from the absorbance at 450 nm (reference wavelength: 655 nm).
For data set [3], the system named is PC 12 cells. In kind it is cell-based. Conditions: 5 minutes then 48 hours, n=5, mean±SEM, Table 1. The method, then:
Rat pheochromocytoma PC 12 cells were suspended with DMEM containing 5% horse serum and 10% fetal bovine serum, seeded in a poly-D-lysine-coated 96-well plate at a concentration of 10,000 cells per well, and incubated in a 5% carbon dioxide atmosphere at 37° C. for 3 days. After the solvent was removed, the cells were washed with 150 μL of serum-free DMEM, and DMEM (75 μL) containing 0.1% horse serum was added thereto. Thereafter, the 96-well plate was incubated in a 5% carbon dioxide atmosphere at 37° C. for 1 day for use in oxygenation reaction. In oxygenation reaction, the compound E (100 μM dimethyl sulfoxide solution) was added to a phosphate buffer saline containing Aβ (aggregated in advance for 3 hours, 40 μM) and 25 μL of the above cell solution (final concentration of Aβ: 10 μM, final concentration of compound E: 1 μM). The mixture was irradiated with an LED (wavelength: 780 nm) at a distance of approximately 5 cm at 37° C. for 5 minutes. The cells were incubated in a 5% carbon dioxide atmosphere at 37° C. for 48 hours. The cell viability was measured by using the Cell Count Reagent SF (NACALAI TESQUE, INC., Kyoto, Japan) with WST-8 (2-(2-methoxy-4-nitrophenyl)-3-(4-nitrophenyl)-5-(2,4-disulfophenyl)-2H-tetrazolium).
b: LC50 (dark) indicates the toxicity of a compound itself, and LC50 (light) indicates the phototoxicity of a compound. The PC 12 cells were placed in dark or subjected to photocatalytic treatment under light irradiation (wavelength: 660 nm), and incubated at 37° C. for 5 minutes, and then in a 5% carbon dioxide atmosphere at 37° C. for 48 hours, for which the cell viability was analyzed (n=5, mean±SEM).
b: The PC 12 cells were treated together with a photocatalyst (1 μM) at 37° C. for 5 minutes in dark or under light irradiation (wavelength: 780 nm), and thereafter the cell viability was analyzed (n=3, mean±SEM).

Data set [4] in a line: Oxygenation of benzoylmethionine in glycerol/water (LC/MS), Test Example 4. As to conditions: compound 2 μM, benzoylmethionine 2000 μM, glycerol/water 0:100 to 50:50, LED 730 nm, room temperature. Here is the method: The compound K (2 μM) was added to glycerol/water (0:100, 10:90, 30:70, 50:50) dissolving benzoylmethionine (2000 μM) therein, and the resultant was subjected to LED irradiation (wavelength: 730 nm) at room temperature, and thereafter the reaction was tracked by using LC/MS (ESI-Q).

A short description of data set [5]: Maximum wavelength λmax of photocatalysts. In kind it is physicochemical. As to conditions: Table 1.
The target in data set [6] is T1, Aβ1-42 (Homo sapiens, UniProt P05067).
T1 construct: phosphate buffer (pH 7.4)/cell culture solution (containing 0.1% horse serum) (1:3) containing Aβ1-42 (10 μM)
Briefly: Degree of oxygenation of pre-aggregated Aβ1-42 (MALDI-TOF MS), Test Example 10. As to conditions: pre-aggregated Aβ1-42 20 μM, catalyst 2 μM, phosphate buffer pH 7.4, 660 nm, 37° C., 30 minutes. In kind it is biochemical. The method, then: (§1) Aβ1-42 isopeptide (concentration: 250 μM in 0.1% aqueous solution of trifluoroacetic acid), angiotensin IV (200 μM aqueous solution), Met-enkephalin (200 μM aqueous solution), and somatostatin (200 μM aqueous solution) were added to a phosphate buffer or phosphate buffer saline (pH 7.4) (with 0.1 M aqueous solution of sodium hydroxide, as necessary) so that a final peptide concentration of 20 μM or 40 μM (pH 7.4) was reached. Before being subjected to oxygenation reaction, the Aβ1-42 solution was incubated at 37° C. for 1 to 3 hours. The phosphate buffer containing 40 μM of Aβ was diluted with a Dulbecco's modified Eagle's medium (DMEM, Life Technologies) containing 0.1% horse serum and buffered with 25 mM of 4-(2-hydroxyethyl)-1-piperazineethanesulfonic acid (HEPES).
(§2) Solutions of the compounds with a final concentration of 2 μM were used for evaluation of oxygenation of Aβ1-42. Solutions of the compounds with a final concentration of 5 μM were used for evaluation of peptide selectivity. Each mixture was subjected to light irradiation with an LED (wavelength: 500, 660, or 780 nm) at a distance of approximately 5 to 10 cm at room temperature. A control group without light irradiation was additionally prepared. Reaction was analyzed through monitor analysis with a MALDI-TOF MS. Degree of oxygenation was determined as a ratio: degree of oxygenation (%)=(total of MS intensities for n[O] adducts)/(MS intensity for native+total of MS intensities for n[O] adducts)×100. Aliquots of each reaction solution were desalted with a ZipTip U-C18 (Merck Millipore), as necessary, before mass spectrometry.
a: A phosphate buffer (pH 7.4) solution containing pre-aggregated Aβ1-42 (20 μM, incubated at 37° C. for 3 hours) and a catalyst (2 μM) was subjected to light irradiation (wavelength: 660 nm) at 37° C. for 30 minutes. Thereafter, the reaction mixture was analyzed by using a MALDI-TOF MS.
a: A phosphate buffer (pH 7.4) containing pre-aggregated Aβ1-42 (20 μM, obtained through incubation at 37° C. for 3 hours) and a catalyst (2 μM) were subjected to light irradiation at 780 nm (14 mW) at 37° C. for 30 minutes. The reaction mixture was analyzed by using a MALDI-TOF MS.

Data set [7] deals with T1, Aβ1-42. Briefly: In vitro oxygenation experiment using Aβ1-42 as a substrate (MALDI-TOF MS), Test Example 1. As to conditions: test compound 1 μM, Aβ1-42 10 μM, LED irradiation at 730 nm, 37° C. In kind it is biochemical. Here is the method: An in vitro oxygenation experiment using Aβ1-42 as a substrate was conducted to confirm that each of the inventive compounds actually have Aβ oxygenation activity. A test compound (1 μM in each case) was added to phosphate buffer (pH 7.4)/cell culture solution (containing 0.1% horse serum) (1:3) containing Aβ1-42 (10 μM), and incubated under LED irradiation (wavelength: 660 nm, 730 nm) at 37° C., and then the reaction was tracked by using a mass spectrometer (MALDI-TOF MS). The native Aβ1-42 and the Na^+ adduct were mainly observed before light irradiation. After light irradiation, an ion peak indicating the presence of the oxygenated form was observed over time (FIG. 1, FIG. 2).

The target in the next data set is T2, Arctic Aβ1-38 (Homo sapiens, UniProt P05067, E693G).
T2 construct: The peak intensity decreased by 36%/53%/74% for Arctic Aβ1-38; from tissue; host or cells: cerebral cortex and hippocampus of App knock-in mouse
In kind it is biochemical. Conditions: mouse brain lysate, riboflavin, light irradiation. Here is the method: The brain excised from an eight-month-old App knock-in (App^NL-C-F/NL-C-F) mouse (Alzheimer's model mouse) was separated into the cerebral cortex, the hippocampus, and the residual brain tissues. The cerebral cortex and the hippocampus were homogenized together in a phosphate buffer saline, and the suspension was stored at −80° C. […] At an arbitrary point of time, an arbitrary aliquot of the reaction mixture was diluted with formic acid to a final concentration of 70%, concentrated, and redissolved in a 6 M aqueous solution of urea.

The target of the next data set is T3, Aβ peptide (Homo sapiens, UniProt P05067).
T3 construct: Aβ1-42 isopeptide (concentration: 250 μM in 0.1% aqueous solution of trifluoroacetic acid)
Briefly: Aβ selectivity of oxygenation, Test Example 9. In kind it is biochemical. Conditions: peptide 20 μM, riboflavin 5 μM, 500 nm, 37° C., 30 minutes. The method, then:
as §1
as §2, with “Each mixture was subjected to light irradiation with an LED (wavelength: 500, 660, or 780 nm) at a distance of approximately 5 to 10 cm at room temperature.” left out

Another data set addresses T4, Met-enkephalin (ME) (Homo sapiens, UniProt P01210).
T4 construct: angiotensin-IV (AT4), Met-enkephalin (ME), or somatostatin (Sst) (20 μM in each case)
In words: Aβ selectivity of oxygenation, Test Example 9. The data set is classed as biochemical. Conditions: peptide 20 μM, riboflavin 5 μM, 500 nm, 37° C., 30 minutes. The method, then: as §1
as §2, with “Each mixture was subjected to light irradiation with an LED (wavelength: 500, 660, or 780 nm) at a distance of approximately 5 to 10 cm at room temperature.” left out

A further data set concerns the target T5, angiotensin-IV (AT4) (Homo sapiens, UniProt P01019).
T5 construct: angiotensin-IV (AT4), Met-enkephalin (ME), or somatostatin (Sst) (20 μM in each case)
In words: Aβ selectivity of oxygenation, Test Example 9. In kind it is biochemical. Conditions: peptide 20 μM, riboflavin 5 μM, 500 nm, 37° C., 30 minutes. Here is the method: as §1
as §2, with “Each mixture was subjected to light irradiation with an LED (wavelength: 500, 660, or 780 nm) at a distance of approximately 5 to 10 cm at room temperature.” left out

Another data set concerns the target T6, somatostatin (Sst) (Homo sapiens, UniProt P61278).
T6 construct: angiotensin-IV (AT4), Met-enkephalin (ME), or somatostatin (Sst) (20 μM in each case)
In words: Aβ selectivity of oxygenation, Test Example 9. The data set is classed as biochemical. Conditions: peptide 20 μM, riboflavin 5 μM, 500 nm, 37° C., 30 minutes. The method, then:
as §1
as §2, with “Each mixture was subjected to light irradiation with an LED (wavelength: 500, 660, or 780 nm) at a distance of approximately 5 to 10 cm at room temperature.” left out

As to `CN(C)c1ccc(/C=C/C2=C(Br)C(/C=C/c3ccc4c(c3)CCCN4CCCCCC(=O)O)=[O+][B-](F)(C(F)(F)F)O2)cc1` (stereo not shown) [Compound K], in data set [1], the “stability of catalyst (ranking)” value is on record as “higher in the order of BFCF3 (compound K)<BFCF2CF3 (compound J)”. Also, the “toxicity under light irradiation (ranking)” value in the data set with PC 12 cells [2] is “higher in the order of the compound J, the compound K, and the compound L; also recorded: iodine provides more reduced toxicity than in the case of bromine”. Besides, the CC50 is 1.89 µM in the data set with PC 12 cells [3] (PC 12 cells in dark, read-out: LC50 (dark)) and 0.143 µM in the data set with PC 12 cells [3] (PC 12 cells, light irradiation 660 nm, read-out: LC50 (light)). In data set [4], the “benzoylmethionine/oxygenated form ratio (%)” value is “higher as the concentration of glycerol, which has high viscosity, was higher”. For the same compound, the “Maximum wavelength λmax (nm)” value in data set [5] is 620 nm. Also, the “Degree of oxygenation (%) of Aβ42 (λ = 660 nm)” value on Aβ1-42 [6] is listed as 86%. Besides, on Aβ1-42 [7], the “oxygenation of Aβ1-42 under light irradiation” value is listed as “oxygenation of the Aβ proceeded”.

Regarding `Cc1cc2nc3c(=O)[nH]c(=O)nc-3n(C[C@H](O)[C@H](O)[C@H](O)CO)c2cc1C` [riboflavin, reference compound], at Arctic Aβ1-38, the “consumption of Aβ1-38” value is “consumed to a significant degree”. On Aβ peptide, the “yield of oxygenated Aβ” value amounted to 43%. For the same compound, the “yield of oxygenated Met-enkephalin” value on Met-enkephalin (ME) is recorded as 50%. The “yield of oxygenated angiotensin-IV” value on angiotensin-IV (AT4) is on record as 35%. Moreover, the “yield of oxygenated somatostatin” value at somatostatin (Sst) amounted to 60%.
